Test results published in paper PMC12082625, “Redox-State-Dependent Structural Changes within a Prokaryotic 6–4 Photolyase” (Journal of the American Chemical Society, 2025).

Tests used:
Assay type in all cases: binding
Cc(6–4)PL [1] = biological target: T1, Cc(6–4)PL (Caulobacter vibrioides, UniProt Q9AAF5, K48A); assay: X-ray crystal structure (synchrotron, […] Å); UV/vis spectroscopy; conditions: antenna site; occupancy in crystal, not an affinity
T1 construct: gene CC_0646; pET28-based, nickel-NTA purified (His-tagged by implication) from E. coli BL21(DE3); model spans M1-S508; contains FAD, DLZ and [4Fe-4S] cluster

Cc(6–4)PL [2] = biological target: T2, Cc(6–4)PL (Caulobacter vibrioides, UniProt Q9AAF5); assay: XFEL serial femtosecond crystallography; conditions: dark-adapted oxidized state, room temperature; N-terminal antenna site; co-purified cofactor
T2 construct: gene CC_0646; pET28-based, nickel-NTA purified (His-tagged by implication) from E. coli BL21(DE3); model spans M1-S508; contains FAD, DLZ and [4Fe-4S] cluster
T2 sequence (Q9AAF5 1-509): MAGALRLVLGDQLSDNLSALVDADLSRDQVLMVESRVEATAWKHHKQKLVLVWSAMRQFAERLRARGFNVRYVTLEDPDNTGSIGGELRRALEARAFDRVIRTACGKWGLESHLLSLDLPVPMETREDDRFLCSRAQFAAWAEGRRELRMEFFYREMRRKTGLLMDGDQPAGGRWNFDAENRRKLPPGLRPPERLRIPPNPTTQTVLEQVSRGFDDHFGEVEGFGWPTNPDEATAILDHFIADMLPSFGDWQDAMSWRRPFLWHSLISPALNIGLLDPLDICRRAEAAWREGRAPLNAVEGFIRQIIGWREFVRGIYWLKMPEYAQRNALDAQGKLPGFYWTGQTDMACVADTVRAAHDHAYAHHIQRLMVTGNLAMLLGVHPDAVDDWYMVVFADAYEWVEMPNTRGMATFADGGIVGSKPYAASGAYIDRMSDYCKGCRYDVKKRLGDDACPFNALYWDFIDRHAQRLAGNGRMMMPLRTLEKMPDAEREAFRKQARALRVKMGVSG

Cc(6–4)PL [3] = biological target: T2, Cc(6–4)PL; assay: XFEL serial femtosecond crystallography; in crystallo UV-vis; conditions: photoreduced in crystals, 50 mM DTT, anaerobic, 30 min white light and blue LED; catalytic FAD site
Cc(6–4)PL [4] = biological target: T2, Cc(6–4)PL; assay: XFEL serial femtosecond crystallography and synchrotron crystal structures; conditions: dark-adapted oxidized state, room temperature; catalytic FAD site; co-purified cofactor

T1 sequence (Q9AAF5 entry or part of it K48A): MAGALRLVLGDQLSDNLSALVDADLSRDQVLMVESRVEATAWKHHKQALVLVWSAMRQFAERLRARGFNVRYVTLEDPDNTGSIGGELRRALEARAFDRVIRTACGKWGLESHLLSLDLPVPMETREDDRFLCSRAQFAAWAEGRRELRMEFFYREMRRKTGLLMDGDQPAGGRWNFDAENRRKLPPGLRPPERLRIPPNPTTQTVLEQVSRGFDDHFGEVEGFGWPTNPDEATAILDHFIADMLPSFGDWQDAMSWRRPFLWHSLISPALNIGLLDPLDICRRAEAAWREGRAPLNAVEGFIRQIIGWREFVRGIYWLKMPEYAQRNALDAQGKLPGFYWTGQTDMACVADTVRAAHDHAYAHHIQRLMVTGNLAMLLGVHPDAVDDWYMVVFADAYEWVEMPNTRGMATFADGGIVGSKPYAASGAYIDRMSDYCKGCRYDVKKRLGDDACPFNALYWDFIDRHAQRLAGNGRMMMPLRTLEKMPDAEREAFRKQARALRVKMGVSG

## Cc1nc2c(=O)[nH]c(=O)nc-2n(C[C@H](O)[C@H](O)[C@H](O)CO)c1C [DLZ]
Cc(6–4)PL [1]
  occupancy: ~ 50%
Cc(6–4)PL [2]
  XFEL serial femtosecond crystallography: Structural analysis reveals an intricate DLZ binding pocket with interactions involving several key residues

## Cc1cc2c(cc1C)N(C[C@H](O)[C@H](O)[C@H](O)COP(=O)(O)OP(=O)(O)OC[C@H]1O[C@@H](n3cnc4c(N)ncnc43)[C@H](O)[C@@H]1O)c1[nH]c(=O)[nH]c(=O)c1N2 [FADH–]
Cc(6–4)PL [3]
  XFEL serial femtosecond crystallography; in crystallo UV-vis: structural changes occurred in the FAD binding site compared to the FADox state

## Cc1cc2nc3c(=O)[nH]c(=O)nc-3n(C[C@H](O)[C@H](O)[C@H](O)COP(=O)(O)OP(=O)(O)OC[C@H]3O[C@@H](n4cnc5c(N)ncnc54)[C@H](O)[C@@H]3O)c2cc1C [FADox]
Cc(6–4)PL [4]
  XFEL serial femtosecond crystallography and synchrotron crystal structures: the damage-free structures reveal FAD’s binding arrangement with its isoalloxazine moiety engaging key amino acid residues
